What was measured:
[1] = molecular target: neuraminidase (NA) of H1N1 (A/PR/8/34) (Influenza A virus (A/Puerto Rico/8/1934(H1N1)), UniProt P03468); assay: NA-Fluor fluorescence assay, whole virus; assay type: biochemical; conditions: read-out: % inhibition at 10 μmol/L
[2] = molecular target: neuraminidase (NA) of H1N1 (A/PR/8/34) (Influenza A virus (A/Puerto Rico/8/1934(H1N1)), UniProt P03468); assay: NA-Fluor fluorescence assay, whole virus; assay type: biochemical; conditions: NA-Fluor substrate, […] °C, […] min preincubation, […] h

Chain of neuraminidase (NA) of H1N1 (A/PR/8/34) (Influenza A virus (A/Puerto Rico/8/1934(H1N1)), UniProt P03468) (P03468 whole entry): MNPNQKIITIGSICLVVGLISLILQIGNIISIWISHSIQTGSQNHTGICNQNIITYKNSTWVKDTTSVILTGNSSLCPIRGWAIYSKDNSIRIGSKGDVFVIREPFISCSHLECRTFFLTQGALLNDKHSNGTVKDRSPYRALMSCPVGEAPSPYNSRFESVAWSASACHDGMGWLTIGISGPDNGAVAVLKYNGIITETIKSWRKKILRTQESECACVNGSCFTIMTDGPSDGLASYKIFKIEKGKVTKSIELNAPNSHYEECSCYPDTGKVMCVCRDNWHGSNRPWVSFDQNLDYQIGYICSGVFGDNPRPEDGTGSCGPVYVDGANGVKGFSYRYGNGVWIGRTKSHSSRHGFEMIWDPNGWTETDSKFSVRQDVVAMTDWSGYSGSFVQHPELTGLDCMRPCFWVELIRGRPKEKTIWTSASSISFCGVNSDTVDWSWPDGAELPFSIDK

Oc1ccc([C@H]2c3c(O)cc(O)cc3[C@H]3c4c(cc(O)cc4[C@@H]2c2cc(/C=C/c4cc(O)cc5c4[C@H](c4cc(O)cc(O)c4)[C@@H](c4ccc(O)cc4)O5)ccc2O)O[C@@H]3c2ccc(O)cc2)cc1 [vitisin A]
inhibition at 10 µM [1]: 43%

Oc1ccc(/C=C/c2cc(O)cc3c2[C@@H](c2cc(O)cc(O)c2)[C@H](c2ccc(O)cc2)O3)cc1 [ε-viniferin]
% inhibition at 10 μmol/L [2]: Ampelopsin A and ε-viniferin exhibited weak inhibitory effects

— publication PMC9939323 (Acta Pharmaceutica Sinica. B, 2022)
